The numbers were not newly measured in patent publication EP2077109A1, “AMIDE COMPOUND, SALT THEREOF, AND BIOFILM REMOVER USING THEM” (The University of Tokyo, priority 2006, dated 2008), which cites them from elsewhere.

The test system of the series is autoinducer. Particulars: statement taken from Patent Document 1 (JP 2006-512290).

Take `CCCCCCCCCC(=O)CC(=O)NN1CCCCC1`: the autoinducer agonist activity entry is given as “exhibits autoinducer agonist activity”.
